The results in this text go back to US20220241278A1 (InCarda Therapeutics, Inc., priority 2021, published 2022).

A short description of series [1]: Rat pharmacokinetics: lung tissue and plasma concentration after IV or IT administration. It counts as in vivo, Sprague Dawley rats. Particulars: IV data, 60 min sample collection period. The protocol: Lung tissue and blood were collected for analysis.
Test System: 72 male Sprague Dawley rats (Charles River Laboratories) were used for the study, 8 weeks old, body weight range at study start was 245.8-317 g.
Experimental Design and Execution: In brief, after the animals were transferred to study, all animals were randomly assigned to treatment groups per the study design below. Animals were treated either via intravenous (IV) administration of formulation R1, or via intratracheal (IT) administration for formulation R2 of the test article.
Plasma and lung concentration vs. time data was analyzed using JMP version 15.2.0. Averages for each time point are reported for groups/time points that have a minimum of 2 animals.
The Therapeutic Advantage (Rd) in Table 8 was calculated using the following equation: […]

Series [2] is described as follows: Appearance of about 30 mg/mL imatinib free base in 30% SBEβCD, 50 mM phosphate buffer at different pH. The conditions noted are these: about 30 mg/mL in 30% SBβCD.

Molecules are shown by their SMILES.

Regarding `Cc1ccc(NC(=O)c2ccc(CN3CCN(C)CC3)cc2)cc1Nc1nccc(-c2cccnc2)n1` [imatinib free base, imatinib], the “distribution between lung tissue and plasma” value in series [1] is given as “preferentially accumulates in the lung tissue”. Besides, the “appearance of the mixture” value in series [2] (pH 3) was “clear solutions”; in series [2] (pH 5), “clear solutions”; in series [2] (pH 7) it was “white suspension”.
